Laboratory results from patent US8003348B2, “Method for the mass expression of an antimicrobial peptide by co-expression of a basic antimicrobial peptide and an acidic peptide using a translational coupling system” (Korea Advanced Institute of Science and Technology, priority 2007, dated 2011).

Assay: antimicrobial activity of the recombinant antimicrobial peptide
Format: cell-based
Conditions: recombinant histonin II purified from E. coli BL21(DE3)/pmIF3H, compared with naturally-occurring antimicrobial peptide

For “RAGLQFPVGRLLRRLLRRLLR (histonin II peptide) [recombinant antimicrobial peptide]”, the antimicrobial activity was “substantially the same antimicrobial activity as a naturally-occurring antimicrobial peptide”.
